18 molecules from US4916231A, “Alkenyltetrazole derivatives” (Shionogi & Co., Ltd., priority 1988, dated 1990) can be followed below.

Counter-ions that a name gives are not always drawn. Like-named read-outs stand apart in the source and are kept apart here.

For assay [1], the system named is sodium arachidonate-induced pulmonary thromboembolic death in mice. As to the kind of experiment: Protective effects on sodium arachidonate-induced pulmonary thromboembolic death in mice. The following applies: for ED50: Mus musculus, iv, 1 h, into tail vein, mortality at 1 hour, read-out: ED50 (95% confidence limit). It counts as in vivo, mice (DDY). As for the experimental part: The mice (DDY, 4 weeks old, male, weight 20 to 25 g) in a group of ten are used.
Pulmonary thromboembolic death was induced by injecting 99% solution of sodium arachidonate (Sigma) in physiological saline [100 mg/kg (100% pulmonary thromboembolic death was induced in this amount.)] into tail vein. In order to examine the duration time of the test compound, sodium arachidonate was administrated in 15 minutes and 60 minutes after an administration of a solution of the test compounds in physioligical saline into tail vein. The mortality at 1 hour was determined and ED50 was calculated by probit method.

In another assay the test system is Guinea Pig Platelet. As to the kind of experiment: Long Acting Inhibitory effect for Guinea Pig Platelet Aggregation (ex vivo), arachidonic acid-induced. It counts as in vivo, guinea pig (Slc- Hartley). The conditions noted are these: for AA (100 μM)-Induced Platelet Aggregation (%): 0.5 mg/kg, mean ± S.E., 5 guinea pigs. Here is the method:
A solution of test compound in physiological saline was administered (dosage: 0.5 mg/kg, dosage volume: 2 ml/Kg) to a guinea pig (Slc- Hartley, male, 9 weeks old, weight 520 to 590 g).
Inhibitory effect for platelet aggregation was measured in 1, 3, and 6 hours after administration of the test compounds.
Under sodium pentobarbital anesthesia, blood was collected from the abdominal artery in such the ratio that 3.8% sodium citrate solution/blood was 1 volume/9 volume.
The blood centrifuged for 15 minutes at 180×g at 22° C. to give platelet rich plasma (PRP). The remaining blood was further centrifuged at 3,000 rpm for 10 minutes at 22° C. to give platelet-poor plasma (PPP).
The platelet aggregation test was performed according to Born's method [Born, G.V.R., Nature, 194, 927-929 (1962)], using an aggregometer (model AUTO RAM-61, Rika Denki Kogyo CO., Ltd.). 400 µl of PRP, whose platelets number was prepared to count 50-55×10^4 /μl, was placed in a measuring cuvette and set in the aggregometer. PRP was stirred for 1 minute (at 1,200 rpm) at 37° C. and preliminarily warmed. As an inducer for platelet aggregating, 100 µl of arachidonic acid (sodium salt, Sigma) was added and the platelet aggregation was monitored with an aggregometer in terms of the increase and decrease in light transmission.
Setting the light transmittance for PRP at 0% of platelet aggregating rate, and that for PPP at 100%, the maximum light transmittance for the sample, after the addition of the inducer for platelet aggregating, was regarded as the maximum platelet aggragation rate.
The inhibitory rate for aggregation (%) was calculated from the ratio of the maximum aggregation rate in the test-compound-added group to that in the control group (carrier-added group).

The subject of another assay is Rats Washed Platelet. In words: in vitro rat washed platelet aggregation test (collagen-induced). It counts as cell-based, rat (Sprague-Dowley). The conditions noted are these: 0.05 h, inducer collagen 4 μg/ml, 37° C., 3 minutes after inducer, read-out: 50% Inhibitory Concentration (IC50), Inhibition of Aggregation for Rats Washed Platelet. Here is the method:
From the abdominal artery of a male rat (Sprague-Dowley, 8 weeks old) was collected 10 ml of blood with a syringe containing 1.5 ml of ACD (85 mM of sodium citrate, 70 mM of citric acid, 110 mM of glucose) and 20 μg of prostaglandin E1. The blood is placed in a plastic test tube, shaken moderately turning and centrifuged for 10 minutes at 160×g to give platelet rich plasma (PRP). To the prepared PRP was added apyrase (25 μg/ml) and the mixture was layered on 40% bovine serum albumin. The resulting mixture is centrifuged at 1200×g for 25 minutes.
The platelet aggregation reaction was measured by an aggregometer (NKK HEMA TRACER 1 MODEL PAT-6A.6M, Niko bioscience). In a measuring cuvette was placed 245 μl of the washed platelet of which platelet number was adjusted to 5×10^5 /μl and set in the aggregometer. The washed platelet was stirred (1000 rpm) at 37° C. and 3.8 µl of 0.1M of CaCl2 was added thereto. One minute later, 0.5 µl of a solution of a test compound in dimethylsulfoxide was added and 2 minutes later, 1 µl of collagen (Collagen reagent Horm®, HORMON-CHEMIE Munchen GMBH, final concentrate 4 μg/ml) as an inducer for platelet aggregating was added. The platelet aggregation was monitored with an aggregometer in terms of the increase and decrease in transmittancy.

`O=S(=O)(N[C@H]1[C@H]2CC[C@H](C2)[C@@H]1C/C=C\CCCc1nnn[nH]1)c1ccccc1` (relative stereo) [Iaa-b, (1R*,2S*,3S*,4S*)-3-phenylsulfonylamino-2-[(2Z)-6-(5-tetrazolyl)hex-2-enyl]bicyclo[2.2.1]heptane]: in assay [1] (15 minutes and 60 minutes pretreatment), the “inhibitory potency, 15 vs 60 minutes pretreatment” value is listed as “did not show significantly different inhibitory potency”. Besides, the “inhibitory effect of 60 minutes pretreatment” value in assay [1] (60 minutes pretreatment) was “rather stronger inhibitory effect”. The results for the ED50 in assay [1] (pretreatment 15 min) and in assay [1] (pretreatment 60 min) were 1.8 mg/kg and 1.5 mg/kg, respectively. The results for the “duration of action” value (in assay [1] (conclusion of mouse test); with Guinea Pig Platelet (conclusion of ex vivo test)) were “long-acting” and “long acting”, respectively. In addition, the “AA (100 μM)-Induced Platelet Aggregation (%)” value with Guinea Pig Platelet (0 hours after p.o. administration) is reported as 89.7 ± 1.4%; in the assay on Guinea Pig Platelet (1 hour after p.o. administration, * p < 0.05), 2.5 ± 2.0%; with Guinea Pig Platelet (3 hours after p.o. administration, * p < 0.05) it was 19.0 ± 18.0%; in the assay on Guinea Pig Platelet (6 hours after p.o. administration) it was 56.3 ± 20.4%. Besides, the “inhibition of arachidonic acid induced platelet aggregation” value was “significantly inhibited” in the assay with Guinea Pig Platelet (1 and 3 hours after administration); “still observed” with Guinea Pig Platelet (6 hours after administration). The IC50 in the assay with Rats Washed Platelet was found to be 3 nM.
As to `Cc1ccc(S(=O)(=O)N[C@H]2[C@H]3CC[C@H](C3)[C@@H]2C/C=C\CCCc2nn[nH]n2)cc1` (relative stereo) [Iab-b, Sodium salt of (1R*,2S*,3S*,4S*)-2-[(2Z)-6-(5-tetrazolyl)hex-2-enyl]-3-(4-tolylsulfonylamino)bicyclo[2.2.1]-hepatane], in the assay on Rats Washed Platelet, the IC50 was found to be 2 nM.
As to `CC1(C)[C@H]2C[C@H](C/C=C\CCCc3nnn[nH]3)[C@@H](NS(=O)(=O)c3ccc(-c4ccccc4)cc3)[C@@H]1C2` [Ieh-b, (1R,2R,3S,5S)-2-[(4-biphenylyl)sulfonylamino]-3-[(2Z)-6-(5-tetrazolyl)hex-2-enyl]-6,6-dimethylbicyclo[3.1.1]heptane], in the assay with Rats Washed Platelet, the IC50 is 10 nM.
`O=S(=O)(N[C@H]1[C@H](C/C=C\CCCc2nnn[nH]2)[C@H]2CC[C@@H]1O2)c1ccccc1` (relative stereo) [Ica-b, (1R*,2S*,3S*,4S*)-3-phenylsulfonylamino-2-[(2Z)-6-(5-tetrazolyl)hex-2-enyl]-7-oxabicyclo[2.2.1]heptane]: the IC50 in the assay with Rats Washed Platelet is 10 nM.
The same measure, in the same setting: for `CC1(C)[C@H]2C[C@H](C/C=C\CCCc3nnn[nH]3)[C@@H](NS(=O)(=O)c3ccccc3Cl)[C@@H]1C2` [Iel-b, (1R,2R,3S,5S)-2-[(2-chlorophenyl)sulfonylamino]-3-[(2Z)-6-(5-tetrazolyl)hex-2-enyl]-6,6-dimethylbicyclo [3.1.1]heptane] the value was 20 nM; for `O=S(=O)(N[C@H]1[C@H]2CC[C@H](C2)[C@@H]1C/C=C\CCCc1nn[nH]n1)c1ccc(Br)cc1` (relative stereo) [Iac-b, (1R*,2S*,3S*,4S*)-3-(4-bromophenylsulfonylamino-2-[(2Z)-6-(5-tetrazolyl)hex-2-enyl]bicyclo[2.2.1]heptane], 2 nM.
Take `COc1ccc(S(=O)(=O)N[C@@H]2[C@@H](C/C=C\CCCc3nnn[nH]3)C[C@H]3C[C@@H]2C3(C)C)cc1` [Iee-b, (1R,2R,3S,5S)-2-[(4-methoxyphenyl)sulfonylamino]-3-[(2Z)-6-(5-tetrazolyl)hex-2-enyl]-6,6-dimethylbicyclo [3.1.1]heptane]: in the assay with Rats Washed Platelet, the IC50 came out at 5 nM.
With `CC1(C)[C@H]2C[C@H](C/C=C\CCCc3nnn[nH]3)[C@@H](NS(=O)(=O)c3ccc4ccccc4c3)[C@@H]1C2` [Iei-b, (1R,2R,3S,5S)-2-[(2-naphthyl)sulfonylamino]-3-[(2Z)-6-(5-tetrazolyl)hex-2-enyl]-6,6-dimethylbicyclo[3.1.1]-heptane], the IC50 in the assay on Rats Washed Platelet worked out at 9 nM.
On the same count and under the same terms, for `O=S(=O)(N[C@H]1[C@H]2CC[C@H](C2)[C@@H]1C/C=C\CCCc1nnn[nH]1)c1ccccc1` [(+)-Iaa-b, (1R,2S,3S,4S)-3-phenylsulfonylamino-2-[(2Z)-6-(5-tetrazolyl)hex-2-enyl]bicyclo[2.2.1]heptane] the value was 2 nM.
For `CC1(C)[C@H]2C[C@H](C/C=C\CCCc3nnn[nH]3)[C@@H](NS(=O)(=O)c3ccc(Br)cc3)[C@@H]1C2` [Iec-b, (1R,2R,3S,5S)-2-[(4-bromophenyl)sulfonylamino]-3-[(2Z)-6-(5-tetrazolyl)hex-2-enyl]-6,6-dimethylbicyclo[3.1.1]heptane], in the assay with Rats Washed Platelet, the IC50 was determined as 2 nM.
Regarding `O=S(=O)(N[C@H]1[C@H]2CC[C@H](C2)[C@@H]1C/C=C\CCCc1nnn[nH]1)c1ccc(O)cc1` (relative stereo) [Iad-b, (1R*,2S*,3S*,4S*)-3-(4-hydroxyphenylsulfonylamino)-2-[(2Z)-6-(5-tetrazolyl)hex-2-enyl]bicyclo[2.2.1]heptane], in the assay with Rats Washed Platelet, the IC50 stood at 2 nM.
For the molecule `O=S(=O)(N[C@@H]1[C@@H](C/C=C\CCCc2nnn[nH]2)[C@H]2CC[C@@H]1O2)c1ccccc1` (relative stereo) [Iba-b, (1R*,2R*,3R*,4S*)-3-phenylsulfonylamino-2-[(2Z)-6-(5-tetrazolyl)hex-2-enyl]-7-oxabicyclo[2.2.1]heptane], the IC50 in the assay with Rats Washed Platelet amounted to 20 nM.
For `CC1(C)[C@H]2C[C@H](C/C=C\CCCc3nnn[nH]3)[C@@H](NS(=O)(=O)c3cccc(Cl)c3)[C@@H]1C2` [Iek-b, (1R,2R,3S,5S)-2-[(3-chlorophenyl)sulfonylamino]-3-[(2Z)-6-(5-tetrazolyl)hex-2-enyl]-6,6-dimethyl-bicyclo [3.1.1]heptane], the IC50 with Rats Washed Platelet was 5 nM.
Regarding `CC1(C)[C@H]2C[C@H](NS(=O)(=O)c3ccccc3)[C@@H](C/C=C\CCCc3nn[nH]n3)[C@@H]1C2` [Ida-b], the IC50 in the assay with Rats Washed Platelet was 3 nM.
Still for that read-out and setting: for `CC1(C)[C@H]2C[C@H](C/C=C\CCCc3nnn[nH]3)[C@@H](NS(=O)(=O)c3ccc(Cl)cc3)[C@@H]1C2` [Iej-b, (1R,2R,3S,5S)-2-[(4-chlorophenyl)sulfonylamino]-3-[(2Z)-6-(5-tetrazolyl)hex-2-enyl]-6,6-dimethylbicyclo [3.1.1]heptane] the value was 7 nM; for `COc1ccc(S(=O)(=O)N[C@H]2[C@H]3CC[C@H](C3)[C@@H]2C/C=C\CCCc2nnn[nH]2)cc1` (relative stereo) [Iae-b, (1R*,2S*,3S*,4S*)-3-(4-methoxyphenylsulfonylamino)-2-[(2Z)-6-(5-tetrazolyl)hex-2-enyl]bicyclo[2.2.1]heptane], 2 nM.
On the same count and under the same terms, for `Cc1ccc(S(=O)(=O)N[C@@H]2[C@@H](C/C=C\CCCc3nnn[nH]3)C[C@H]3C[C@@H]2C3(C)C)cc1` [Ieb-b, (1R,2R,3S,5S)-2-(p-tolylsulfonylamino)-3-[(2Z)-6-(5-tetrazolyl)hex-2-enyl]-6,6-dimethylbicyclo[3.1.1]-heptane] the value was 4 nM; for `CC1(C)[C@H]2C[C@H](C/C=C\CCCc3nnn[nH]3)[C@@H](NS(=O)(=O)c3ccccc3)[C@@H]1C2` [Iea-b, (1R,2R,3S,5S)-2-phenylsulfonylamino-3-[(2Z)-6-(5-tetrazolyl)hex-2-enyl]-6,6-dimethylbicyclo[3.1.1]heptane], 20 nM.
